The first assay is filed under the species Felis catus. Briefly: Response ratio = (percent increase to drug)/(percent increase to 10 E-5 M isoproterenol). It counts as functional.
For the compound `COc1cccc(OC)c1-c1nc2cc[nH]cc-2n1`, the Response ratio was -0.31.

Take `COc1cc(N(C)C)ccc1-c1nc2cc[nH]cc-2n1`: the Response ratio was 0.03.

As for `Fc1ccc(-c2nc3cc[nH]cc-3n2)cc1`, the Response ratio was found to be 0.06.

Take `COc1ccc(-c2nc3cc[nH]cc-3n2)c([S+](C)[O-])c1` (stereo not drawn): the Response ratio is reported as 0.1.

On to `CCSc1ccc(-c2nc3cc[nH]cc-3n2)c(OC)c1`, for which the Response ratio was determined as 0.5.

On to `CCOc1cc(OC)ccc1-c1nc2cc[nH]cc-2n1`, for which the Response ratio is 0.11.

Turning to `COc1cc(F)ccc1-c1nc2cc[nH]cc-2n1`, the Response ratio came out at 0.28.

Turning to `COc1cccc(-c2nc3cc[nH]cc-3n2)c1OC`, the Response ratio is given as 0.03.

On to `COc1ccc(-c2nc3cc[nH]cc-3n2)c(SC)c1`, for which the Response ratio is reported as 0.19.

As for `N#Cc1ccc(-c2nc3ccncc3[nH]2)cc1`, the Response ratio is reported as 0.16.

On to `COc1cc(-c2nc3cc[nH]cc-3n2)ccc1[S+](C)[O-]` (stereo not drawn), for which the Response ratio was determined as 0.15.

On to `COc1ccc(-c2nc3ccc[nH]c-3n2)cc1OC`, for which the Response ratio is on record as 0.04.

For `COc1ccccc1-c1nc2cc[nH]cc-2n1`, the Response ratio came out at 0.28.

As for `COc1cc(OCc2ccccc2)ccc1-c1nc2cc[nH]cc-2n1`, the Response ratio is reported as 0.17.

Regarding `COc1c(C)cc(-c2nc3cc[nH]cc-3n2)cc1C`, the Response ratio worked out at 0.29.

`COc1cc(OC)cc(-c2nc3cc[nH]cc-3n2)c1`: the Response ratio turned out to be 0.21.

With `COCCCOc1cc(OC)ccc1-c1nc2cc[nH]cc-2n1`, the Response ratio was -0.01.

Turning to `c1ccc(-c2nc3ccccc3[nH]2)cc1`, the Response ratio amounted to 0.07.

As to `CCCCOc1cc(OC)ccc1-c1nc2cc[nH]cc-2n1`, the Response ratio is on record as 0.

Take `CCCCCOc1cc(OC)ccc1-c1nc2cc[nH]cc-2n1`: the Response ratio stood at 0.07.

With `CCCSc1ccc(-c2nc3cc[nH]cc-3n2)c(OC)c1`, the Response ratio turned out to be 0.35.

In the case of `COc1cc(Br)ccc1-c1nc2cc[nH]cc-2n1`, the Response ratio worked out at 0.47.

Another assay is filed under the species Felis catus. Briefly: Response ratio = (percent increase to drug)/(percent increase to 10 E-4 M isoproterenol). It counts as functional.
On to `COc1cccc(OC)c1-c1nc2cc[nH]cc-2n1`, for which the Response ratio turned out to be 1.16.

`COc1cc(N(C)C)ccc1-c1nc2cc[nH]cc-2n1`: the Response ratio came to 0.9.

Turning to `Fc1ccc(-c2nc3cc[nH]cc-3n2)cc1`, the Response ratio was 0.87.

In the case of `COc1ccc(-c2nc3cc[nH]cc-3n2)c([S+](C)[O-])c1` (stereo not drawn), the Response ratio stood at 0.22.

`CCSc1ccc(-c2nc3cc[nH]cc-3n2)c(OC)c1`: the Response ratio turned out to be 1.33.

In the case of `CCOc1cc(OC)ccc1-c1nc2cc[nH]cc-2n1`, the Response ratio came out at 0.41.

As for `COc1cc(F)ccc1-c1nc2cc[nH]cc-2n1`, the Response ratio is given as 0.58.

`COc1cccc(-c2nc3cc[nH]cc-3n2)c1OC`: the Response ratio is reported as -0.14.

For the compound `COc1ccc(-c2nc3cc[nH]cc-3n2)c(SC)c1`, the Response ratio was 1.44.

Take `N#Cc1ccc(-c2nc3ccncc3[nH]2)cc1`: the Response ratio worked out at 0.89.

`COc1cc(-c2nc3cc[nH]cc-3n2)ccc1[S+](C)[O-]` (stereo not drawn): the Response ratio was determined as 0.75.

As to `COc1ccc(-c2nc3ccc[nH]c-3n2)cc1OC`, the Response ratio turned out to be 0.22.

As to `COc1ccccc1-c1nc2cc[nH]cc-2n1`, the Response ratio was found to be 1.38.

As for `COc1cc(OCc2ccccc2)ccc1-c1nc2cc[nH]cc-2n1`, the Response ratio was determined as 0.07.

As to `COc1c(C)cc(-c2nc3cc[nH]cc-3n2)cc1C`, the Response ratio stood at 1.57.

On to `COc1cc(OC)cc(-c2nc3cc[nH]cc-3n2)c1`, for which the Response ratio is given as 1.1.

Turning to `COCCCOc1cc(OC)ccc1-c1nc2cc[nH]cc-2n1`, the Response ratio is given as 0.65.

With `c1ccc(-c2nc3ccccc3[nH]2)cc1`, the Response ratio is 0.47.

`CCCCOc1cc(OC)ccc1-c1nc2cc[nH]cc-2n1`: the Response ratio turned out to be 0.55.

For `CCCCCOc1cc(OC)ccc1-c1nc2cc[nH]cc-2n1`, the Response ratio was -0.26.

Consider `CCCSc1ccc(-c2nc3cc[nH]cc-3n2)c(OC)c1`, for which the Response ratio came to 0.54.

For the compound `COc1cc(Br)ccc1-c1nc2cc[nH]cc-2n1`, the Response ratio is given as 1.04.

For a further assay, the species on record is Felis catus. As to the kind of experiment: Compound tested for contractility in isolated cat papillary muscle at 10 e-5 M. It counts as functional.
In turn, `COc1cccc(OC)c1-c1nc2cc[nH]cc-2n1` had a Control of 78%.

Compound `COc1cc(N(C)C)ccc1-c1nc2cc[nH]cc-2n1` displayed a Control of 102%.

Regarding `Fc1ccc(-c2nc3cc[nH]cc-3n2)cc1`, the Control amounted to 105%.

As to `COc1ccc(-c2nc3cc[nH]cc-3n2)c([S+](C)[O-])c1` (stereo not drawn), the Control was determined as 107%.

On to `CCSc1ccc(-c2nc3cc[nH]cc-3n2)c(OC)c1`, for which the Control is 136%.

In the case of `CCOc1cc(OC)ccc1-c1nc2cc[nH]cc-2n1`, the Control is 108%.

The compound `COc1cc(F)ccc1-c1nc2cc[nH]cc-2n1` displayed a Control of 120%.

Compound `COc1cccc(-c2nc3cc[nH]cc-3n2)c1OC` gave a Control of 102%.

The compound `COc1ccc(-c2nc3cc[nH]cc-3n2)c(SC)c1` had a Control of 114%.

Turning to `N#Cc1ccc(-c2nc3ccncc3[nH]2)cc1`, the Control came out at 112%.

Compound `COc1cc(-c2nc3cc[nH]cc-3n2)ccc1[S+](C)[O-]` (stereo not drawn) returned a Control of 111%.

As for `COc1ccc(-c2nc3ccc[nH]c-3n2)cc1OC`, the Control amounted to 103%.

`COc1ccccc1-c1nc2cc[nH]cc-2n1` registered a Control of 120%.

`COc1cc(OCc2ccccc2)ccc1-c1nc2cc[nH]cc-2n1` had a Control of 112%.

`COc1c(C)cc(-c2nc3cc[nH]cc-3n2)cc1C` came in with a Control of 121%.

`COc1cc(OC)cc(-c2nc3cc[nH]cc-3n2)c1`: the Control came to 115%.

In turn, `COCCCOc1cc(OC)ccc1-c1nc2cc[nH]cc-2n1` displayed a Control of 99%.

Turning to `c1ccc(-c2nc3ccccc3[nH]2)cc1`, the Control was found to be 105%.

Turning to `CCCCOc1cc(OC)ccc1-c1nc2cc[nH]cc-2n1`, the Control was 100%.

`CCCCCOc1cc(OC)ccc1-c1nc2cc[nH]cc-2n1`: the Control is listed as 105%.

On to `CCCSc1ccc(-c2nc3cc[nH]cc-3n2)c(OC)c1`, for which the Control turned out to be 125%.

In the case of `COc1cc(Br)ccc1-c1nc2cc[nH]cc-2n1`, the Control is listed as 134%.

The species named for a further assay is Felis catus. Briefly: Compound tested for contractility in isolated cat papillary muscle at 10 e-4 M. It is filed as functional.
For `COc1cccc(OC)c1-c1nc2cc[nH]cc-2n1`, the Control was determined as 184%.

For `COc1cc(N(C)C)ccc1-c1nc2cc[nH]cc-2n1`, the Control is given as 165%.

For the compound `Fc1ccc(-c2nc3cc[nH]cc-3n2)cc1`, the Control was determined as 163%.

`COc1ccc(-c2nc3cc[nH]cc-3n2)c([S+](C)[O-])c1` (stereo not drawn) yielded a Control of 116%.

`CCSc1ccc(-c2nc3cc[nH]cc-3n2)c(OC)c1` displayed a Control of 196%.

Consider `CCOc1cc(OC)ccc1-c1nc2cc[nH]cc-2n1`, for which the Control worked out at 130%.

`COc1cc(F)ccc1-c1nc2cc[nH]cc-2n1` showed a Control of 142%.

Compound `COc1cccc(-c2nc3cc[nH]cc-3n2)c1OC` came in with a Control of 90%.

Compound `COc1ccc(-c2nc3cc[nH]cc-3n2)c(SC)c1` showed a Control of 204%.

`N#Cc1ccc(-c2nc3ccncc3[nH]2)cc1`: the Control was found to be 164%.

Compound `COc1cc(-c2nc3cc[nH]cc-3n2)ccc1[S+](C)[O-]` (stereo not drawn) showed a Control of 154%.

Regarding `COc1ccc(-c2nc3ccc[nH]c-3n2)cc1OC`, the Control worked out at 116.5%.

As for `COc1ccccc1-c1nc2cc[nH]cc-2n1`, the Control amounted to 200%.

On to `COc1cc(OCc2ccccc2)ccc1-c1nc2cc[nH]cc-2n1`, for which the Control amounted to 105%.

With `COc1c(C)cc(-c2nc3cc[nH]cc-3n2)cc1C`, the Control worked out at 213%.

For `COc1cc(OC)cc(-c2nc3cc[nH]cc-3n2)c1`, the Control came out at 179%.

Take `COCCCOc1cc(OC)ccc1-c1nc2cc[nH]cc-2n1`: the Control worked out at 147%.

As for `c1ccc(-c2nc3ccccc3[nH]2)cc1`, the Control is 134%.

For the compound `CCCCOc1cc(OC)ccc1-c1nc2cc[nH]cc-2n1`, the Control is reported as 140%.

The compound `CCCCCOc1cc(OC)ccc1-c1nc2cc[nH]cc-2n1` registered a Control of 81%.

The compound `CCCSc1ccc(-c2nc3cc[nH]cc-3n2)c(OC)c1` showed a Control of 139%.

On to `COc1cc(Br)ccc1-c1nc2cc[nH]cc-2n1`, for which the Control amounted to 175%.

The values are drawn from ChEMBL document CHEMBL1123114, “Structure-activity relationships of arylimidazopyridine cardiotonics: discovery and inotropic activity of 2-[2-methoxy-4-(methylsulfinyl)phenyl]-1H-imidazo[4,5-c]pyridine” (1985).
